# Assay results published in patent US11254663B2 (BRISTOL-MYERS SQUIBB COMPANY, priority 2019, dated 2022).
# Molecular target: FXR (Homo sapiens (Human), UniProt Q96RI1)
# Test: FXR EC50 (FXR agonist potency reported with each Example)
# Format: cell-based
# FXR, sequence (Q96RI1 262-486): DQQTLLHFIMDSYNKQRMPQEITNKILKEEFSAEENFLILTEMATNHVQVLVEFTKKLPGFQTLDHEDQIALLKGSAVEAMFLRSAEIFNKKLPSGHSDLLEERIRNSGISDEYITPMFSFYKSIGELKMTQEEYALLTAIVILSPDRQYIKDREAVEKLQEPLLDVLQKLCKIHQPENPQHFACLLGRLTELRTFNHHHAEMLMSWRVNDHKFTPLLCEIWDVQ
row,SMILES,EC50 [nM]
1,"CC(C)(C)c1nc(-c2cccc(N(CC34CCC(c5nc(C6CC6)no5)(CC3)CC4)C(=O)C34CC(F)(C3)C4)c2)no1 [Example 107, N-(3-(5-(tert-butyl)-1,2,4-oxadiazol-3-yl)phenyl)-N-((4-(3-cyclopropyl-1,2,4-oxadiazol-5-yl)bicyclo[2.2.2]octan-1-yl)methyl)-3-fluorobicyclo[1.1.1]pentane-1-carboxamide]",18
2,"O=C(N(CC12CCC(c3nc(C4CC4)no3)(CC1)CC2)c1cccc(-c2noc(C(F)(F)F)n2)c1)C12CC(F)(C1)C2 [Example 108, N-((4-(3-cyclopropyl-1,2,4-oxadiazol-5-yl)bicyclo[2.2.2]octan-1-yl)methyl)-3-fluoro-N-(3-(5-(trifluoromethyl)-1,2,4-oxadiazol-3-yl)phenyl)bicyclo[1.1.1]pentane-1-carboxamide]",144
3,"CC(C)c1nc(-c2cccc(N(CC34CCC(c5nc(C6CC6)no5)(CC3)CC4)C(=O)C34CC(F)(C3)C4)c2)no1 [Example 109, N-((4-(3-cyclopropyl-1,2,4-oxadiazol-5-yl)bicyclo[2.2.2]octan-1-yl)methyl)-3-fluoro-N-(3-(5-isopropyl-1,2,4-oxadiazol-3-yl)phenyl)bicyclo[1.1.1]pentane-1-carboxamide]",55
4,"O=C(N(CC12CCC(c3nc(C4CC4)no3)(CC1)CC2)c1cccc(-c2noc(C3(O)CC3)n2)c1)C12CC(F)(C1)C2 [Example 110, N-((4-(3-cyclopropyl-1,2,4-oxadiazol-5-yl)bicyclo[2.2.2]octan-1-yl)methyl)-3-fluoro-N-(3-(5-(1-hydroxycyclopropyl)-1,2,4-oxadiazol-3-yl)phenyl)bicyclo[1.1.1]pentane-1-carboxamide]",88
5,"CC(=O)NC1(c2nc(-c3cccc(N(CC45CCC(c6nc(C7CC7)no6)(CC4)CC5)C(=O)C45CC(F)(C4)C5)c3)no2)CC1 [Example 111, N-(3-(5-(1-acetamidocyclopropyl)-1,2,4-oxadiazol-3-yl)phenyl)-N-((4-(3-cyclopropyl-1,2,4-oxadiazol-5-yl)bicyclo[2.2.2]octan-1-yl)methyl)-3-fluorobicyclo[1.1.1]pentane-1-carboxamide]",120
6,"CC(F)(F)c1nc(-c2cccc(N(CC34CCC(c5nc(C6CC6)no5)(CC3)CC4)C(=O)C34CC(F)(C3)C4)c2)no1 [Example 112, N-((4-(3-cyclopropyl-1,2,4-oxadiazol-5-yl)bicyclo[2.2.2]octan-1-yl)methyl)-N-(3-(5-(1,1-difluoroethyl)-1,2,4-oxadiazol-3-yl)phenyl)-3-fluorobicyclo[1.1.1]pentane-1-carboxamide]",68
7,"CC1(c2nc(-c3cccc(N(CC45CCC(c6nc(C7CC7)no6)(CC4)CC5)C(=O)C45CC(F)(C4)C5)c3)no2)COC1 [Example 113, N-((4-(3-cyclopropyl-1,2,4-oxadiazol-5-yl)bicyclo[2.2.2]octan-1-yl)methyl)-3-fluoro-N-(3-(5-(3-methyloxetan-3-yl)-1,2,4-oxadiazol-3-yl)phenyl)bicyclo[1.1.1]pentane-1-carboxamide]",121
8,"O=C(N(CC12CCC(c3noc(C45CC(F)(C4)C5)n3)(CC1)CC2)c1cccc(-c2nc(C3CC3)no2)c1)C12CC(F)(C1)C2 [Example 114, N-(3-(3-cyclopropyl-1,2,4-oxadiazol-5-yl)phenyl)-3-fluoro-N-((4-(5-(3-fluorobicyclo[1.1.1]pentan-1-yl)-1,2,4-oxadiazol-3-yl)bicyclo[2.2.2]octan-1-yl)methyl)bicyclo[1.1.1]pentane-1-carboxamide]",177
9,"CC1(c2nc(C34CCC(CN(C(=O)C56CC(F)(C5)C6)c5cccc(-c6nc(C7CC7)no6)c5)(CC3)CC4)no2)CC1 [Example 115, N-(3-(3-cyclopropyl-1,2,4-oxadiazol-5-yl)phenyl)-3-fluoro-N-((4-(5-(1-methylcyclopropyl)-1,2,4-oxadiazol-3-yl)bicyclo[2.2.2]octan-1-yl)methyl) bicyclo[1.1.1]pentane-1-carboxamide]",35
10,"O=C(N(CC12CCC(c3noc(C4CC4)n3)(CC1)CC2)c1cccc(-c2nc(C3CC3)no2)c1)C12CC(F)(C1)C2 [Example 116, N-((4-(5-cyclopropyl-1,2,4-oxadiazol-3-yl)bicyclo[2.2.2]octan-1-yl)methyl)-N-(3-(3-cyclopropyl-1,2,4-oxadiazol-5-yl)phenyl)-3-fluorobicyclo[1.1.1]pentane-1-carboxamide]",117
11,"O=C(N(CC12CCC(c3noc(C(F)F)n3)(CC1)CC2)c1cccc(-c2nc(C3CC3)no2)c1)C12CC(F)(C1)C2 [Example 117, N-(3-(3-cyclopropyl-1,2,4-oxadiazol-5-yl)phenyl)-N-((4-(5-(difluoromethyl)-1,2,4-oxadiazol-3-yl)bicyclo[2.2.2]octan-1-yl)methyl)-3-fluorobicyclo[1.1.1]pentane-1-carboxamide]",12
12,"O=C(N(CC12CCC(c3noc(C4(C(F)(F)F)CC4)n3)(CC1)CC2)c1cccc(-c2nc(C3CC3)no2)c1)C12CC(F)(C1)C2 [Example 118, N-(3-(3-cyclopropyl-1,2,4-oxadiazol-5-yl)phenyl)-3-fluoro-N-((4-(5-(1-(trifluoromethyl)cyclopropyl)-1,2,4-oxadiazol-3-yl)bicyclo[2.2.2]octan-1-yl)methyl) bicyclo[1.1.1]pentane-1-carboxamide]",30
13,"CC(C)(C)c1nc(C23CCC(CN(C(=O)C45CC(F)(C4)C5)c4cccc(-c5nc(C6CC6)no5)c4)(CC2)CC3)no1 [Example 119, N-((4-(5-(tert-butyl)-1,2,4-oxadiazol-3-yl)bicyclo[2.2.2]octan-1-yl)methyl)-N-(3-(3-cyclopropyl-1,2,4-oxadiazol-5-yl)phenyl)-3-fluorobicyclo[1.1.1]pentane-1-carboxamide]",15
14,"CC(C)c1nc(C23CCC(CN(C(=O)C45CC(F)(C4)C5)c4cccc(-c5nc(C6CC6)no5)c4)(CC2)CC3)no1 [Example 120, N-(3-(3-cyclopropyl-1,2,4-oxadiazol-5-yl)phenyl)-3-fluoro-N-((4-(5-isopropyl-1,2,4-oxadiazol-3-yl)bicyclo[2.2.2]octan-1-yl)methyl)bicyclo[1.1.1]pentane-1-carboxamide]",15
15,"CC(F)(F)c1nc(C23CCC(CN(C(=O)C45CC(F)(C4)C5)c4cccc(-c5nc(C6CC6)no5)c4)(CC2)CC3)no1 [Example 121, N-(3-(3-cyclopropyl-1,2,4-oxadiazol-5-yl)phenyl)-N-((4-(5-(1,1-difluoroethyl)-1,2,4-oxadiazol-3-yl)bicyclo[2.2.2]octan-1-yl)methyl)-3-fluorobicyclo[1.1.1]pentane-1-carboxamide]",22
16,"CC1(c2nc(C34CCC(CN(C(=O)C56CC(F)(C5)C6)c5cccc(-c6nc(C7CC7)no6)c5)(CC3)CC4)no2)COC1 [Example 122, N-(3-(3-cyclopropyl-1,2,4-oxadiazol-5-yl)phenyl)-3-fluoro-N-((4-(5-(3-methyloxetan-3-yl)-1,2,4-oxadiazol-3-yl)bicyclo[2.2.2]octan-1-yl)methyl)bicyclo[1.1.1]pentane-1-carboxamide]",28
17,"O=C(N(CC12CCC(c3noc(C4CC4(F)F)n3)(CC1)CC2)c1cccc(-c2nc(C3CC3)no2)c1)C12CC(F)(C1)C2 (stereo not drawn) [Example 123, N-(3-(3-cyclopropyl-1,2,4-oxadiazol-5-yl)phenyl)-N-((4-(5-(2,2-difluorocyclopropyl)-1,2,4-oxadiazol-3-yl)bicyclo[2.2.2]octan-1-yl)methyl)-3-fluorobicyclo[1.1.1]pentane-1-carboxamide]",73
18,"Cn1nc(C23CCC(CN(C(=O)C45CC(F)(C4)C5)c4cccc(-c5nc(C6CC6)no5)c4)(CC2)CC3)cc1C1CC1 [Example 124, N-(3-(3-cyclopropyl-1,2,4-oxadiazol-5-yl)phenyl)-N-((4-(5-cyclopropyl-1-methyl-1H-pyrazol-3-yl)bicyclo[2.2.2]octan-1-yl)methyl)-3-fluorobicyclo[1.1.1]pentane-1-carboxamide]",89
19,"Cn1nc(C23CCC(CN(C(=O)C4CC(F)(F)C4)c4cccc(-c5nc(C6CC6)no5)c4)(CC2)CC3)cc1C1CC1 [Example 125, N-(3-(3-cyclopropyl-1,2,4-oxadiazol-5-yl)phenyl)-N-((4-(5-cyclopropyl-1-methyl-1H-pyrazol-3-yl)bicyclo[2.2.2]octan-1-yl)methyl)-3,3-difluorocyclobutane-1-carboxamide]",480
20,"Cn1nc(C2CC2)cc1C12CCC(CN(C(=O)C34CC(F)(C3)C4)c3cccc(-c4nc(C5CC5)no4)c3)(CC1)CC2 [Example 126, N-(3-(3-cyclopropyl-1,2,4-oxadiazol-5-yl)phenyl)-N-((4-(3-cyclopropyl-1-methyl-1H-pyrazol-5-yl)bicyclo[2.2.2]octan-1-yl)methyl)-3-fluorobicyclo[1.1.1]pentane-1-carboxamide]",87
21,"Cn1nc(C2CC2)cc1C12CCC(CN(C(=O)C3CC(F)(F)C3)c3cccc(-c4nc(C5CC5)no4)c3)(CC1)CC2 [Example 127, N-(3-(3-cyclopropyl-1,2,4-oxadiazol-5-yl)phenyl)-N-((4-(3-cyclopropyl-1-methyl-1H-pyrazol-5-yl)bicyclo[2.2.2]octan-1-yl)methyl)-3,3-difluorocyclobutane-1-carboxamide]",374
22,"COc1ccc(C23CCC(CN(C(=O)C45CC(F)(C4)C5)c4cccc(-c5nc(C6CC6)no5)c4)(CC2)CO3)cc1 [Example 128, N-(3-(3-Cyclopropyl-1,2,4-oxadiazol-5-yl)phenyl)-3-fluoro-N-((1-(4-methoxyphenyl)-2-oxabicyclo[2.2.2]octan-4-yl)methyl)bicyclo[1.1.1]pentane-1-carboxamide]",403
23,"COc1ccc(C23CCC(CN(C(=O)C4CC(F)(F)C4)c4cccc(-c5nc(C6CC6)no5)c4)(CC2)CO3)cc1 [Example 129, N-(3-(3-Cyclopropyl-1,2,4-oxadiazol-5-yl)phenyl)-3,3-difluoro-N-((1-(4-methoxyphenyl)-2-oxabicyclo[2.2.2]octan-4-yl)methyl)cyclobutane-1-carboxamide]",1140
24,"Cn1cc(-c2cccc(N(CC34CCC(c5nc(C6CC6)no5)(CC3)CC4)C(=O)C34CC(F)(C3)C4)c2)nc1C1CC1 [Example 130, N-((4-(3-cyclopropyl-1,2,4-oxadiazol-5-yl)bicyclo[2.2.2]octan-1-yl)methyl)-N-(3-(2-cyclopropyl-1-methyl-1H-imidazol-4-yl)phenyl)-3-fluorobicyclo[1.1.1]pentane-1-carboxamide]",585
